Measurements from patent publication US11254640B2, “N-substituted indoles and other heterocycles for treating brain disorders” (The Regents of the University of California, priority 2019, dated 2022).
Where two headings read alike, the source gives them in different places.

Experiments:
rats = rats trained to discriminate DOM from saline, cited from earlier work
C57/BL6J mice = test: Forced swim test (FST); type: in vivo, mouse; conditions: 24 h after drug administration; i.p., compounds 20 mg/kg, ketamine 3 mg/kg
Protocol: Forced Swim Test. As increased cortical structural plasticity in the anterior parts of the brain mediates the sustained (>24 h) antidepressant-like effects of ketamine and play a role in the therapeutic effects of 5-HT2A agonists, the impact of IsoDMT analogs on forced swim test (FST) behavior (FIG. 14A and FIG. 14B) was evaluated. First, a pretest was used to induce a depressive phenotype. Compounds were administered 24 h after the pre-test, and the FST was performed 24 h and 7 d post drug administration.
Forced Swim Test (FST). Male C57/BL6J mice (9-10 weeks old at time of experiment) were obtained from the Jackson Lab and housed 4-5 mice/cage in a UCD vivarium following an IACUC approved protocol. After 1 week in the vivarium each mouse was handled for approximately 1 minute by a experimenter for 3 consecutive days leading up to the first FST. […] Immobility scores for all mice were determined after the pre-test and mice were randomly assigned to treatment groups to generate groups with similar average immobility scores to be used for the following two FST sessions. […] Experiments were video-recorded and manually scored offline. Immobility time—defined as passive floating or remaining motionless with no activity other than that needed to keep the mouse's head above water—was scored for the last 4 min of the 6 min trial.

Compound	melting point [°C]	substitution for hallucinogenic training drug (DOM) in drug discrimination (rats)	substitution for hallucinogenic training drug (DOM) in drug discrimination (rats; listed as 5-MeO-isoDMT)	immobility in forced swim test (C57/BL6J mice)
COc1cccc2c1ccn2CCN(C)C.O=C(O)/C=C/C(=O)O [Example 3, 2-(4-methoxy-1H-indol-1-yl)-N,N-dimethylethan-1-amine]	140 to 145			
COc1ccc2c(ccn2CCN(C)C)c1.O=C(O)/C=C/C(=O)O [Example 4, 2-(5-methoxy-1H-indol-1-yl)-N,N-dimethylethan-1-amine]	140 to 142	low hallucinogenic potential	does not	
COc1ccc2ccn(CCN(C)C)c2c1 [Example 5, 2-(6-methoxy-1H-indol-1-yl)-N,N-dimethylethan-1-amine]		substitutes		
COc1cccc2ccn(CCN(C)C)c12.O=C(O)/C=C/C(=O)O [Example 6, 2-(7-methoxy-1H-indol-1-yl)-N,N-dimethylethan-1-amine]	120 to 123			
COc1ccc2c(ccn2C[C@@H](C)N(C)C)c1 [Example 59, (R)-1-(5-methoxy-1H-indol-1-yl)-N,N-dimethylpropan-2-amine]				significantly reduced immobility
